Where two headings read alike, the source gives them in different places.
Key:
[1] = assay type: physicochemical; settings: for crystal growth in the fertilizer solutions tested: review of table 2
Description: Crystal formation in a suspension concentrate is a complex phenomenon. It is believed that if the solubility of the suspended solid chemical is high in the medium, the suspension concentrate is prone to form crystals of the suspended solid chemical in storage. […] The concentrations of the solid pesticides used in this example were low (at a typical ready-to-apply concentration range). If a solid pesticide forms crystals in such a low concentration, it is not suitable for a ready-to-apply pesticide suspension and mostly likely will not be suitable for a more concentrated suspension in fertilizer. […] By “not suitable” is meant that although it may work to some extent, it is not a good candidate for the pesticide SC.
Samples were prepared by adding the components followed by hand-shaking.

[2] = Quick screening of crystal growth potential in fertilizer concentrates and water, solid pesticides containing a carboxylic acid group (Example 2); assay type: physicochemical; settings: for suitability for suspension in fertilizer solutions: review of table 3
Procedure: Samples were prepared by adding the components followed by hand-shaking. Samples were placed at 0° C. and observation was made after 1 day, unless otherwise specified.

[3] = Study of additional surfactants in 10-34-0, 27-4-0 and diluted 10-34-0 fertilizers (Example 8); assay type: physicochemical
[4] = Stability of 50% clothianidin in 50% URAN 32 fertilizer (Example 6); assay type: physicochemical; settings: 0.5 g in 100 g URAN 32 fertilizer solution
Procedure: 0.5 g Witcolate D-510 surfactant was added into 100 g URAN 32 fertilizer solution (50 wt % URAN 32 in water). […] Then 100 g clothianidin was added to the resulting solution and mixed well by hand-shaking. This sample was stable and had about 10% top clear with a smooth bottom suspension after 2 weeks at 40° C.
In other experiments, 0.3% of a pH adjusting agent (40 wt % Citric acid), was included in the SC sample (homogenized sample) and no noticeable effect was observed on stability. Viscosity measurements were made with a Brookfield viscometer at various speeds (rpm) at room temperature with a #64 spindle. This sample was very viscous but it was highly shear-thinning.

[5] = Storage stability of 40% clothianidin SC in 10-34-0 with wetting agent Witcolate D-510 (Example 5); assay type: physicochemical; settings: clothianidin suspension in 10-34-0
Procedure: The test samples were prepared by adding 60 grams of 10-34-0 fertilizer (from Plant Food) to a bottle. Then various amounts of Witcolate D-510 (2-ethylhexyl sulfate) were added to the 10-34-0 fertilizer and mixed well. Finally, 40 grams of clothianidin (technical grade) was added to the mixture and mixed well by shaking by hand.

[6] = 1 wt % powder pesticide, 98 wt % 10-34-0, 1 wt % Witcolate D-510
[7] = 1 wt % powder pesticide, 98 wt % 40% AMS, 1 wt % Witcolate D-510
[8] = 1 wt % powder pesticide, 98 wt % URAN 32, 1 wt % Witcolate D-510
[9] = 1 wt % powder pesticide, 98 wt % Water, 1 wt % Witcolate D-510
[10] = powder pesticide (glyphosate acid 2, 2,4-D acid 1.3, others 1 wt %) in 10-34-0, no wetting agent
[11] = powder pesticide (glyphosate acid 2, 2,4-D acid 1.3, others 1 wt %) in 10-34-0, no wetting agent, 0° C., 1 day unless otherwise specified
[12] = powder pesticide (glyphosate acid 2, 2,4-D acid 1.3, others 1 wt %) in 40% AMS, no wetting agent
[13] = powder pesticide (glyphosate acid 2, 2,4-D acid 1.3, others 1 wt %) in 40% AMS, no wetting agent, 0° C., 1 day unless otherwise specified
[14] = powder pesticide (glyphosate acid 2, 2,4-D acid 1.3, others 1 wt %) in URAN 32, no wetting agent, 0° C., 1 day unless otherwise specified
[15] = powder pesticide (glyphosate acid 2, 2,4-D acid 1.3, others 1 wt %) in Water, no wetting agent
[16] = powder pesticide (glyphosate acid 2, 2,4-D acid 1.3, others 1 wt %) in Water, no wetting agent, 0° C., 1 day unless otherwise specified
[17] = 1 wt % powder pesticide in 99 wt % 10-34-0, no wetting agent
[18] = 1 wt % powder pesticide in 99 wt % 40% AMS, no wetting agent
[19] = 1 wt % powder pesticide in 99 wt % URAN 32, no wetting agent
[20] = 1 wt % powder pesticide in 99 wt % Water, no wetting agent
[21] = 30 wt % powder pesticide in 70 wt % 10-34-0, no wetting agent

For `Cc1c(COC(=O)[C@@H]2[C@H](/C=C(\Cl)C(F)(F)F)C2(C)C)cccc1-c1ccccc1` (racemic) [Bifenthrin], the “Comment: powder sank or floated” value [1, 6] was “floated”, the “Comment: suitability” value [1, 6] was “Suitable” and the “Comment: powder sank or floated” value [1, 7] was “sank”. The “Comment: suitability” value [1, 7] was “Suitable”, the “Comment: powder sank or floated” value [1, 8] was “floated” and the “Comment: suitability” value [1, 8] was “Suitable”. The “Comment: powder sank or floated” value [1, 9] was “sank”, the “Comment: suitability” value [1, 9] was “Suitable” and the “crystal growth in the fertilizer solutions tested” value [1] was “did not have crystal growth”.
With `O=C(O)COc1ccc(Cl)cc1Cl` [2,4-D acid] the “Comment: suitability” value [2, 10] was “particles. Not suitable”, the “Comment: crystal growth or other change” value [2, 11] was “Crystal growth between powder” and the “Comment: dissolution” value [2, 11] was “Not dissolved”. The “Comment: powder sank or floated” value [2, 11] was “Powder sank”, the “Comment: suitability” value [2, 12] was “particles. Not suitable” and the “Comment: crystal growth or other change” value [2, 13] was “Crystal growth between powder”. The “Comment: dissolution” value [2, 13] was “Not dissolved”, the “Comment: powder sank or floated” value [2, 13] was “Powder sank” and the “Comment: suitability” value ([2]; powder pesticide (glyphosate acid 2, 2,4-D acid 1.3, others 1 wt %) in URAN 32, no wetting agent) was “particles. Not suitable”. The “Comment: crystal growth or other change” value [2, 14] was “Crystal growth between powder”, the “Comment: dissolution” value [2, 14] was “Not dissolved” and the “Comment: powder sank or floated” value [2, 14] was “Powder sank”. The “Comment: suitability” value [2, 15] was “particles. Not suitable”, the “Comment: crystal growth or other change” value [2, 16] was “Crystal growth between powder” and the “Comment: dissolution” value [2, 16] was “Not dissolved”. For the same compound, the “Comment: powder sank or floated” value [2, 16] was “Powder sank” and the “suitability for suspension in fertilizer solutions” value (shortened to “suitability for suspension”) [2] was “may not be suitable”.
For `CCCCC(CC)COC(=O)CC(C(=O)OCC(CC)CCCC)S(=O)(=O)O.[Na]` (stereo not shown) [Aerosol AOT-75, sodium bis (2-ethyl hexyl) sulfosuccinate], the “Surfactant Suitability” value ([3]; 27-4-0 99, surfactant 1 wt) was “Not suitable” and the “suitability for the fertilizers tested” value ([3]; review of table 10) was “not suitable”.
With `CCNc1nc(Cl)nc(NC(C)C)n1` [Atrazine] the “Comment: powder sank or floated” value [1, 17] was “floated”, the “Comment: suitability” value [1, 17] was “Suitable” and the “Comment: suitability” value [1, 18] was “Suitable”. The “Comment: powder sank or floated” value [1, 19] was “floated”, the “Comment: suitability” value [1, 19] was “Suitable” and the “Comment: suitability” value [1, 20] was “Suitable”. For the same compound, the “Comment: powder sank or floated” value [1, 6] was “floated”, the “Comment: suitability” value [1, 6] was “Suitable” and the “Comment: powder sank or floated” value [1, 7] was “floated”. For the same compound, the “Comment: suitability” value [1, 7] was “Suitable”, the “Comment: powder sank or floated” value [1, 8] was “floated” and the “Comment: suitability” value [1, 8] was “Suitable”. The “Comment: powder sank or floated” value [1, 9] was “sank”, the “Comment: suitability” value [1, 9] was “Suitable” and the “crystal growth in the fertilizer solutions tested” value [1] was “did not have crystal growth”.
In the case of `COc1c(Cl)ccc(Cl)c1C(=O)O` [Dicamba acid], the “Comment: suitability” value [2, 10] is reported as “Not suitable”, the “Comment: crystal growth or other change” value [2, 11] is reported as “Crystal formed at bottom at 0 C” and the “Comment: crystal growth or other change” value [2, 13] is reported as “Oily drop formed at bottom”. For the same compound, the “Comment: dissolution” value [2, 14] was “Dissolved”, the “Comment: suitability” value [2, 15] was “Not suitable” and the “Comment: crystal growth or other change” value [2, 16] was “Crystal formed at 0 C. and”. The “suitability for suspension” value [2] was “may not be suitable”.
With `CN(C)C(=O)Nc1ccc(Cl)c(Cl)c1` [Diuron] the “Comment: powder sank or floated” value [1, 17] was “sank and some floated”, the “Comment: suitability” value [1, 17] was “Suitable” and the “Comment: suitability” value [1, 18] was “Suitable”. For the same compound, the “Comment: powder sank or floated” value [1, 19] was “sank”, the “Comment: suitability” value [1, 19] was “Suitable” and the “Comment: suitability” value [1, 20] was “Suitable”. The “Comment: suitability” value [1, 6] was “Suitable”, the “Comment: powder sank or floated” value [1, 7] was “sank” and the “Comment: suitability” value [1, 7] was “Suitable”. For the same compound, the “Comment: powder sank or floated” value [1, 8] was “sank”, the “Comment: suitability” value [1, 8] was “Suitable” and the “Comment: powder sank or floated” value [1, 9] was “sank”. For the same compound, the “Comment: suitability” value [1, 9] was “Suitable” and the “crystal growth in the fertilizer solutions tested” value [1] was “did not have crystal growth”.
For `O=C(O)CNCP(=O)(O)O` [Glyphosate acid], the “Comment: dissolution” value [2, 21] was “Powder not dissolved. Powder”, the “Comment: suitability” value [2, 21] was “at room temp. Not suitable” and the “Comment: crystal growth or other change” value ([2]; 30 wt % powder pesticide in 70 wt % 10-34-0, no wetting agent, at room temp) was “Crystal growth on container wall”. For the same compound, the “Comment: dissolution” value [2, 11] was “Dissolved at room temp”, the “Comment: suitability” value [2, 12] was “Not suitable” and the “Comment: dissolution” value [2, 13] was “Dissolved”. The “Comment: crystal growth or other change” value [2, 16] was “Crystal growth at room temp”, the “Comment: dissolution” value [2, 16] was “Not dissolved” and the “suitability for suspension” value [2] was “may not be suitable”.
With `O=[N+]([O-])NC1=NCCN1Cc1ccc(Cl)nc1` [Imidaclopid] the “solubility in URAN 32” value [1] was “high solubility”, the “Comment: suitability” value [1, 17] was “Suitable” and the “Comment: suitability” value [1, 18] was “Suitable”. For the same compound, the “Comment: dissolution” value [1, 19] was “Dissolved”, the “Comment: suitability” value [1, 19] was “Not suitable” and the “Comment: suitability” value [1, 20] was “Suitable”. The “Comment: suitability” value [1, 6] was “Suitable”, the “Comment: powder sank or floated” value [1, 7] was “sank” and the “Comment: suitability” value [1, 7] was “Suitable”. For the same compound, the “Comment: dissolution” value [1, 8] was “Dissolved”, the “Comment: suitability” value [1, 8] was “Not suitable” and the “Comment: powder sank or floated” value [1, 9] was “sank”. The “Comment: suitability” value [1, 9] was “Suitable” and the “crystal growth in the fertilizer solutions tested” value [1] was “did not have crystal growth”.
In the case of `CCCCC(C#N)(Cn1cncn1)c1ccc(Cl)cc1` (stereo not shown) [Myclobutanil], the “Comment: powder sank or floated” value [1, 17] is reported as “floated”, the “Comment: suitability” value [1, 17] is reported as “Suitable” and the “Comment: powder sank or floated” value [1, 18] is reported as “sank”. The “Comment: suitability” value [1, 18] was “Suitable”, the “Comment: powder sank or floated” value [1, 19] was “floated” and the “Comment: suitability” value [1, 19] was “Suitable”. For the same compound, the “Comment: powder sank or floated” value [1, 20] was “sank”, the “Comment: suitability” value [1, 20] was “Suitable” and the “Comment: powder sank or floated” value [1, 6] was “floated”. The “Comment: suitability” value [1, 6] was “Suitable”, the “Comment: powder sank or floated” value [1, 7] was “floated” and the “Comment: suitability” value [1, 7] was “Suitable”. For the same compound, the “Comment: powder sank or floated” value [1, 8] was “floated”, the “Comment: suitability” value [1, 8] was “Suitable” and the “Comment: powder sank or floated” value [1, 9] was “sank”. The “Comment: suitability” value [1, 9] was “Suitable” and the “crystal growth in the fertilizer solutions tested” value [1] was “did not have crystal growth”.
In the case of `CCCCCCCCCCCC(=O)OCCOCCOCCOCCOCCOCCOCCOCCOCCOCCOCCOCCOCCOCCOCCOCCOCCOCCOCCOCCOCC(OCCOCCOCCOCCOCCOCCOCCOCCOCCOCCOCCOCCOCCOCCOCCOCCOCCOCCOCCOCCO)C1OCC(OCCOCCOCCOCCOCCOCCOCCOCCOCCOCCOCCOCCOCCOCCOCCOCCOCCOCCOCCOCCO)C1OCCOCCOCCOCCOCCOCCOCCOCCOCCOCCOCCOCCOCCOCCOCCOCCOCCOCCOCCOCCO` (stereo not shown) [Tween 20, Polysorbate-20], the Appearance ([3]; 27-4-0 99.4, surfactant 0.6 wt) is reported as “Clear”.
With `CCCCC(CC)COS(=O)(=O)[O-].[Na+]` (stereo not shown) [Witcolate D510, 2-ethylhexyl sulfate] the “dissolution of surfactant in URAN 32” value [4] was “dissolved in URAN 32 readily” and the Appearance ([3]; 27-4-0 76.6, surfactant 23.4 wt) was “Clear”.
With “C4-C6 phosphate ester with less than 7EO units (acid form)” the “surfactant in place of Witcolate D-510 to produce similar clothianidin suspensions” value [5] was “suitable”.
In the case of “C810-3EO sulfate [C810-3EO sulfate (40%)]”, the Appearance ([3]; 27-4-0 89.4, surfactant 10.6 wt) is reported as “Clear”.
With “Sodium C810 sulfate [Sodium C810 sulfate (40%)]” the Appearance ([3]; 10-34-0 56.1, Water 30.7, surfactant 13.2 wt) was “Clear” and the Appearance ([3]; 27-4-0 81.2, surfactant 18.8 wt) was “Clear”.
For “Sodium Laureth-2 sulfate [Witconate ES-2]”, the Appearance ([3]; 27-4-0 91.3, surfactant 8.7 wt) was “Clear”.

Reference: patent publication US20180265423A1, “Pesticide Dispersion in Concentrated Aqueous Fertilizer Solution” (priority 2014, published 2018)
